Where “and” joins values, the source holds several entries; their conditions need not be identical. Identical values can stand only once.
Biological target: T1, AHR (Homo sapiens, UniProt P35869)
T1 construct: U87 MG glioblastoma cells (ATCC #HTB-14) endogenously expressing AHR; endogenous in cells; host or cells: U87 MG glioblastoma cells (ATCC #HTB-14)
T1 sequence (P35869 11-848): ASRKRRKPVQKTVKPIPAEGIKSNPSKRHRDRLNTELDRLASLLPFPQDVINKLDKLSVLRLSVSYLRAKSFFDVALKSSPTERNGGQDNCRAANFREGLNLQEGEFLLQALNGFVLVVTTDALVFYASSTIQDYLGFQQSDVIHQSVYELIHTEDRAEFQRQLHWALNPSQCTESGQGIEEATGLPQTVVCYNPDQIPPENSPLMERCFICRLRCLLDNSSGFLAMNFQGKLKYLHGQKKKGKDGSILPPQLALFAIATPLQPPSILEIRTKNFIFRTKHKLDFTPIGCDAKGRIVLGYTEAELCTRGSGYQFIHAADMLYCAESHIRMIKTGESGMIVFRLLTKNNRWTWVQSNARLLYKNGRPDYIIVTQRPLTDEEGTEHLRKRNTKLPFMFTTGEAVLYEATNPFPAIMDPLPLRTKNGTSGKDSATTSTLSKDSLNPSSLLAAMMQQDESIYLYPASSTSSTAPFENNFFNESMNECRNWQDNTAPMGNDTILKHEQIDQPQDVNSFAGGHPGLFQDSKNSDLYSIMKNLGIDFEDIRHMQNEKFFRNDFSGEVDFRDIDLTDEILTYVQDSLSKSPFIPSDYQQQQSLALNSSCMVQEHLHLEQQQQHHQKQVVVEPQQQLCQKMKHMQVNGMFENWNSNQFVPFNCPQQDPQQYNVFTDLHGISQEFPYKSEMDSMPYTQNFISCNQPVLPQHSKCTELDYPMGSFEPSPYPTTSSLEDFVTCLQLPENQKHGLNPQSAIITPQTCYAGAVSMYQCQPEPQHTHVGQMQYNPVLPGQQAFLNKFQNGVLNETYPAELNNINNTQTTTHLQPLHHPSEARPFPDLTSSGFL
Experiment: In vitro assay 1: antagonism in human cell line (AHR transactivation, firefly luciferase reporter, kynurenic acid prestimulated)
Format: cell-based
Conditions: AHR Antagonism Human IC50 [M]
Method: Examples were tested in selected biological assays one or more times. When tested more than once, data are reported as either average values or as median values, wherein • the average value, also referred to as the arithmetic mean value, represents the sum of the values obtained divided by the number of times tested, and • the median value represents the middle number of the group of values when ranked in ascending or descending order. If the number of values in the data set is odd, the median is the middle value. If the number of values in the data set is even, the median is the arithmetic mean of the two middle values.
Transactivation assays were carried out in U87 MG glioblastoma cells (ATCC #HTB-14) endogenously expressing AHR. In addition the cells were stably transfected with an AHR inducible firefly luciferase reporter gene construct that carried AHR-binding sites (DRE) in its promoter and a renilla reporter gene construct with constitutively active promoter. Kynurenic acid is an endogenous AHR activating ligand and was used to prestimulate test cells prior to testing the antagonistic properties of compounds.
As positive inhibition control cells supplemented with 150 μM kynurenic acid were incubated in presence of 5 μM Staurosporin. Normalization was done by positive and negative controls.
Firefly luciferase and Renilla activity was determined by the DualGlo Luciferase Assay System (Promega, #2920). Renilla activity was used to assess toxic effects of compounds.

COc1cccc(-c2nc3c4ccc(F)cc4nc(N[C@H]4CCNC4=O)n3n2)c1 [Example 149, (3S)-3-{[8-fluoro-2-(3-methoxyphenyl)[1,2,4]triazolo[1,5-c]quinazolin-5-yl]amino}pyrrolidin-2-one]
IC50: 1.81e-07 M

O=C1NCCCC[C@H]1Nc1nc2cccc(C(F)(F)F)c2c2nc(-c3cccc(F)c3)nn12 [Example 171, (3R)-3-{[2-(3-fluorophenyl)-10-(trifluoromethyl)[1,2,4]triazolo[1,5-c]quinazolin-5-yl]amino}azepan-2-one]
IC50: 6.2e-08 M

Cn1cc(-c2nc3c4cc(C(F)(F)F)ccc4nc(N[C@@H]4CCCCNC4=O)n3n2)cn1 [Example 546, (3R)-3-{[2-(1-methyl-1H-pyrazol-4-yl)-9-(trifluoromethyl)[1,2,4]triazolo[1,5-c]quinazolin-5-yl]amino}azepan-2-one]
IC50: 2.24e-06 M

CCNC(=O)C(CC)Nc1nc2ccccc2c2nc(-c3cccc(OC(F)(F)F)c3)nn12 (single isomer, unassigned) [Example 320, N-ethyl-2-({2-[3-(trifluoromethoxy)phenyl][1,2,4]triazolo[1,5-c]quinazolin-5-yl}amino)butanamide]
IC50: 1.21e-06 M

Cc1sccc1-c1nc2c3ccccc3nc(N[C@@H]3CCCCNC3=O)n2n1 [Example 346, (3R)-3-{[2-(2-methylthiophen-3-yl)[1,2,4]triazolo[1,5-c]quinazolin-5-yl]amino}azepan-2-one]
IC50: 2.24e-09 M

COc1cc2nc(N[C@@H]3CCCCNC3=O)n3nc(-c4cnn(C)c4)nc3c2cc1OC [Example 589, (3R)-3-{[8,9-dimethoxy-2-(1-methyl-1H-pyrazol-4-yl)[1,2,4]triazolo[1,5-c]quinazolin-5-yl]amino}azepan-2-one]
IC50: > 2e-05 M

CC[C@@H](Nc1nc2ccccc2c2nc(-c3ccc(Cl)cc3OC(F)F)nn12)C(N)=O [Example 531, (2R)-2-({2-[4-chloro-2-(difluoromethoxy)phenyl][1,2,4]triazolo[1,5-c]quinazolin-5-yl}amino)butanamide]
IC50: 1.29e-09 M

O=C1NCCCC[C@H]1Nc1nc2ccccc2c2nc(-c3ccc(Cl)cc3OC(F)F)nn12 [Example 525, (3R)-3-({2-[4-chloro-2-(difluoromethoxy)phenyl][1,2,4]triazolo[1,5-c]quinazolin-5-yl}amino)azepan-2-one]
IC50: 9.92e-10 M

CCCCC(Nc1nc2ccccc2c2nc(-c3cccc(OC(F)(F)F)c3)nn12)C(N)=O (stereo not shown) [Example 323]
IC50: > 2e-05 M and 1.32e-05 M and 8.31e-06 M

CN1CCCC[C@H](Nc2nc3ccccc3c3nc(-c4ccc(Cl)cc4OC(F)F)nn23)C1=O [Example 530, (3S)-3-({2-[4-chloro-2-(difluoromethoxy)phenyl][1,2,4]triazolo[1,5-c]quinazolin-5-yl}amino)-1-methylazepan-2-one]
IC50: > 2e-05 M

COc1cccc(-c2nc3c4ccc(C)cc4nc(N[C@@H]4CCCCNC4=O)n3n2)c1 [Example 145, (3R)-3-{[2-(3-methoxyphenyl)-8-methyl[1,2,4]triazolo[1,5-c]quinazolin-5-yl]amino}azepan-2-one]
IC50: 3.17e-08 M

Cn1cc(-c2nc3c4ccccc4nc(NC4CNCCNC4=O)n3n2)cn1 (single isomer, unassigned) [Example 24, 6-{[2-(1-methyl-1H-pyrazol-4-yl)[1,2,4]triazolo[1,5-c]quinazolin-5-yl]amino}-1,4-diazepan-5-one]
IC50: > 4e-05 M

Nc1ccc(-c2nc3c4ccccc4nc(N[C@@H]4CCCCNC4=O)n3n2)cc1 [Example 620, (3R)-3-{[2-(4-aminophenyl)[1,2,4]triazolo[1,5-c]quinazolin-5-yl]amino}azepan-2-one]
IC50: 8.44e-08 M

C[C@@H](Nc1nc2c(C(F)(F)F)cccc2c2nc(-c3cnn(C)c3)nn12)C(=O)O [Example 869, N-[2-(1-methyl-1H-pyrazol-4-yl)-7-(trifluoromethyl)[1,2,4]triazolo[1,5-c]quinazolin-5-yl]-D-alanine]
IC50 (firefly luciferase reporter): > 2e-05 M

O=C1NCCCC[C@H]1Nc1nc2ccccc2c2nc(-c3ccccc3)nn12 [Example 5, (3R)-3-[(2-phenyl[1,2,4]triazolo[1,5-c]quinazolin-5-yl)amino]azepan-2-one]
IC50: 3.4e-10 M

COc1ccc(-c2nc3c4ccc(C5CC5)cc4nc(N[C@@H]4CCCCNC4=O)n3n2)cc1 [Example 251, (3R)-3-{[8-Cyclopropyl-2-(4-methoxyphenyl)[1,2,4]triazolo[1,5-c]quinazolin-5-yl]amino}azepan-2-one]
IC50: 3.04e-07 M

Cc1cc(-c2nc3c4ccccc4nc(N[C@@H]4CCCCNC4=O)n3n2)ccc1F [Example 626, (3R)-3-{[2-(4-fluoro-3-methylphenyl)[1,2,4]triazolo[1,5-c]quinazolin-5-yl]amino}azepan-2-one]
IC50: 9.2e-10 M

O=C1NCCCC[C@H]1Nc1nc2ccccc2c2nc(-c3ccc(F)cc3)nn12 [Example 74, (3R)-3-{[2-(4-fluorophenyl)[1,2,4]triazolo[1,5-c]quinazolin-5-yl]amino}azepan-2-one]
IC50: 1.62e-10 M

CCCCNC(=O)CNc1nc2ccccc2c2nc(-c3cccc(OC(F)(F)F)c3)nn12 [Example 317, N-butyl-N^2-{2-[3-(trifluoromethoxy)phenyl][1,2,4]triazolo[1,5-c]quinazolin-5-yl}glycinamide]
IC50: 1.45e-07 M

COc1ccc(-c2nc3c4ccc(OC)cc4nc(N[C@@H]4CNCCNC4=O)n3n2)cc1 [Example 272, (6R)-6-{[8-methoxy-2-(4-methoxyphenyl)[1,2,4]triazolo[1,5-c]quinazolin-5-yl]amino}-1,4-diazepan-5-one]
IC50: 2.77e-06 M

CCOc1ccccc1-c1nc2c3ccccc3nc(N[C@@H]3CCCCNC3=O)n2n1 [Example 198, (3R)-3-{[2-(2-ethoxyphenyl)[1,2,4]triazolo[1,5-c]quinazolin-5-yl]amino}azepan-2-one]
IC50: 1.82e-06 M

Cn1cc(-c2nc3c4c(C5CC5)cccc4nc(N[C@@H]4CCCCNC4=O)n3n2)cn1 [Example 177, (3R)-3-{[10-cyclopropyl-2-(1-methyl-1H-pyrazol-4-yl)[1,2,4]triazolo[1,5-c]quinazolin-5-yl]amino}azepan-2-one]
IC50: 7.35e-07 M

Cc1cc(-c2nc3c4ccccc4nc(N[C@@H]4CCCCNC4=O)n3n2)cs1 [Example 352, (3R)-3-{[2-(5-methylthiophen-3-yl)[1,2,4]triazolo[1,5-c]quinazolin-5-yl]amino}azepan-2-one]
IC50: 9.72e-10 M

CN1CC[C@@H](Nc2nc3ccccc3c3nc(-c4ccccc4OC(F)(F)F)nn23)C1=O [Example 460, (3R)-1-methyl-3-({2-[2-(trifluoromethoxy)phenyl][1,2,4]triazolo[1,5-c]quinazolin-5-yl}amino)pyrrolidin-2-one]
IC50: 7.67e-08 M

Cn1cc(-c2nc3c4ccc(Br)cc4nc(N[C@@H]4CCCCNC4=O)n3n2)cn1 [Example 230, (3R)-3-{[8-bromo-2-(1-methyl-1H-pyrazol-4-yl)[1,2,4]triazolo[1,5-c]quinazolin-5-yl]amino}azepan-2-one]
IC50: 1.97e-06 M
